Test results as given in patent US4318916A, “Antibiotic PS-5 and derivatives having β-lactamase inhibitory activity and production thereof” (Sanraku-Ocean Co., Ltd., priority 1977, dated 1982).
≈ marks a conversion by molar mass, not a printed value. Counter-ions that a name gives are not always drawn.

How the values were obtained:
[1] = tested on: Staphylococcus aureus FDA 209p; assay: MIC by broth dilution (Table 13); format: cell-based; settings: FDA209P, 20 h; Staphylococcus aureus FDA 209p; read-out: MIC
Protocol: (§1) The MIC (minimum inhibitory concentration) values of the compound were determined on various pathogenic microorganisms including several resistant strains, utilizing the broth dilution method in BRAIN HEART INFUSION BROTH `Eiken` (EIKEN CHEMICAL CO., LTD.).
(§2) The results were read after incubation at 35° C. for 20 hours. The minimum inhibitory concentration (MIC) values means the lowest concentration unit of the tritylation product of the antibiotic PS-5 was no growth of the corresponding microorganism was observed under the above described conditions. As the control antibiotics,the solutions of ampicillin and cephaloridine were prepared in BRAIN HEART INFUSION BROTH `Eiken` (pH 7.0) at a concentration of 100 μg/ml and treated same as the test compound of the present invention.

[2] = tested on: Escherichia coli K12; assay: MIC by broth dilution (Table 13); format: cell-based; settings: 20 h
Protocol: as §1, §2

[3] = tested on: Proteus rettgeri P-7; assay: MIC by broth dilution (Table 13); format: cell-based; settings: Providencia rettgeri, P7, 20 h; Proteus rettgeri P-7; read-out: MIC
Protocol: as §1, §2

[4] = tested on: Proteus vulgaris P-5; assay: MIC by broth dilution (Table 13); format: cell-based; settings: P5, 20 h; Proteus vulgaris P-5; read-out: MIC
Protocol: as §1, §2

[5] = tested on: Pseudomonas aeruginosa P-1; assay: MIC by broth dilution (Table 13); format: cell-based; settings: P1, 20 h; Pseudomonas aeruginosa P-1; read-out: MIC
Protocol: as §1, §2

[6] = tested on: Enterobacter sp. E-8; assay: MIC by broth dilution (Table 13); format: cell-based; settings: SP.E8, 20 h; Enterobacter sp. E-8; read-out: MIC
Protocol: as §1, §2

[7] = tested on: Enterobacter aerogenes E-19; assay: MIC by broth dilution (Table 13); format: cell-based; settings: Klebsiella aerogenes, E19, 20 h
Protocol: as §1, §2

[8] = tested on: Citrobacter freundii E-9; assay: MIC by broth dilution (Table 13); format: cell-based; settings: E9, 20 h; Citrobacter freundii E-9; read-out: MIC
Protocol: as §1, §2

[9] = tested on: Klebsiella pneumoniae K-2; assay: MIC by broth dilution (Table 13); format: cell-based; settings: K2, 20 h; Klebsiella pneumoniae K-2; read-out: MIC
Protocol: as §1, §2

[10] = tested on: Alcaligenes faecalis B-326; assay: MIC by broth dilution (Table 13); format: cell-based; settings: Alcaligenes faecalis, B326, 20 h
Protocol: as §1, §2

[11] = tested on: Serratia marcescens S-18; assay: MIC by broth dilution (Table 13); format: cell-based; settings: S18, 20 h
Protocol: as §1, §2

[12] = tested on: Sarcina lutea S-19; assay: MIC by broth dilution (Table 13); format: cell-based; settings: Micrococcus luteus, S19, 20 h; Sarcina lutea S-19; read-out: MIC
Protocol: as §1, §2

[13] = tested on: Staphylococcus aureus Smith; assay: MIC by broth dilution (Table 13); format: cell-based; settings: 20 h; Staphylococcus aureus Smith; read-out: MIC
Protocol: as §1, §2

[14] = tested on: Diplococcus pneumoniae Type III; assay: MIC by broth dilution (Table 13); format: cell-based; settings: Streptococcus pneumoniae, 20 h; Diplococcus pneumoniae Type III; read-out: MIC
Protocol: as §1, §2

[15] = tested on: Streptococcus pyogenes NY-5; assay: MIC by broth dilution (Table 13); format: cell-based; settings: NY5, 20 h; Streptococcus pyogenes NY-5; read-out: MIC
Protocol: as §1, §2

[16] = tested on: Enterobacter cloacae E-16; assay: MIC by broth dilution (Table 13); format: cell-based; settings: E16, 20 h
Protocol: as §1, §2

[17] = tested on: Proteus mirabilis P-6; assay: MIC by broth dilution (Table 13); format: cell-based; settings: Proteus mirabilis, P6, 20 h
Protocol: as §1, §2

[18] = tested on: Proteus vulgaris P-5; assay: Potentiation disc assay with cephaloridine (Table 10); format: cell-based; settings: Proteus vulgaris P-5; for Inhibition zone With CER: 50 μg/ml cephaloridine in agar
Protocol: (A) Ten milliliters of molten nutrient agar containing 50 μg/ml of penicillin G or cephaloridine, 0.8% of Kyokuto Nutrient Broth Powder and 1.0% of Difco Bacto-Agar (pH 7.0) were seeded with the beta-lactam-resistant, beta-lactamase-producing microorganisms indicated in Tables 9 and 10, and poured in a 9-cm Petri dish to provide the bio-assay agar plate. On this assay plate, 8-mm pulp discs containing 25 μl each of antibiotic PS-5 solutions at the indicated concentrations were placed and incubated at 35° C. for 18 hours before reading the inhibition zones. The control assay plate was similarly prepared without penicillin G nor cephaloridine. As reference antibiotics, penicillin G, ampicillin, oxacillin and cefazolin were disc-assayed under the same conditions.

[19] = Solubility of antibiotic PS-5; format: physicochemical; settings: sodium salt preparation of Example 9
[20] = tested on: Comamonas terrigena B-996; assay: Disc bio-assay of antimicrobial activity, cephaloridine equivalent units; format: cell-based; settings: Comamonas-cephaloridine units per mg of the final purified preparation
Protocol: The overnight culture of Comamonas terrigena B-996 on a nutrient agar slant was suspended in nutrient broth so as to give an optical cell density of 0.040 at 610 nm.
The seed suspension was added in a 1% amount to a molten agar medium containing 0.8% Kyokuto Nutrient Broth Powder (Kyokuto Pharmaceutical Industries Co.) and 1.0% Bacto-Agar (Difco Laboratories). Seven milliliters of the seeded molten agar medium were distributed in a Petri dish (9 cm in diameter) and solidified). This is defined as a Comamonas assay plate.
An 8 mm pulp disc was usually soaked with a sample solution to be assayed, left on a clean sheet of filter paper for a sufficient time to remove the excess solution and then transferred onto an assay plate. After incubation at 35° C. for 20 hours, the diameter of the observed inhibition zone was measured and compared with standard solutions of cephaloridine. The antimicrobial activity of the antibiotic PS-5 and related compounds is expressed as cephaloridine equivalent units/ml.
As well known to those skilled in the art, the assay standard curve varies to some extent, depending on the species of the test microorganisms. […]

[21] = tested on: male ddy mice; format: in vivo; settings: 500 mg/kg intraperitoneally
Protocol: An aqueous solution of the antibiotic PS-5 sodium salt was intraperitoneally administered to male ddy mice (Shizuoka) at the dose of 500 mg/kg.

[22] = tested on: Staphylococcus aureus Smith; assay: Therapeutic activity of antibiotic PS-5 sodium salt in infected mice; format: in vivo; settings: sc; male ddy mice infected i.p. with 5×10^5 cells/mouse Staphylococcus aureus Smith; subcutaneously injected soon after infection; read-out: 50% curative dose
Text: The therapeutic activity of the antibiotic PS-5 sodium salt was studied by treating mice intraperitoneally infected with 5×10^5 cells/mouse of Staphylococcus aureus Smith. Soon after the infection, an aqueous solution of the antibiotic PS-5 sodium salt was subcutaneously injected.

## CC1(C)S[C@@H]2[C@H](NC(=O)[C@H](N)c3ccccc3)C(=O)N2[C@H]1C(=O)O [Ampicillin, ampicillin]
[1]
  MIC: 0.2 µg/mL (≈ 0.572 µM)
[2]
  MIC: 3.13 µg/mL (≈ 8.96 µM)
[3]
  MIC: 50 µg/mL (≈ 143 µM)
[4]
  MIC: > 100 µg/mL
[5]
  MIC: 50 µg/mL (≈ 143 µM)
[6]
  MIC: > 100 µg/mL
[7]
  MIC: > 100 µg/mL
[8]
  MIC: > 100 µg/mL
[9]
  MIC: > 100 µg/mL
[10]
  MIC: 6.25 µg/mL (≈ 17.9 µM)
[11]
  MIC: 50 µg/mL (≈ 143 µM)
[12]
  MIC: 0.05 µg/mL (≈ 0.143 µM)
[13]
  MIC: 0.2 µg/mL (≈ 0.572 µM)
[14]
  MIC: 0.04 µg/mL (≈ 0.114 µM)
[15]
  MIC: 0.02 µg/mL (≈ 0.0572 µM)
[16]
  MIC: > 100 µg/mL
[17]
  MIC: 3.13 µg/mL (≈ 8.96 µM)
[18]; P5, 18 h, reference antibiotic 625 μg/ml, read-out: Inhibition zone Without CER
  zone of inhibition at 625 µg/mL: 0 mm
[18]; P5, 18 h, reference antibiotic 2,500 μg/ml, read-out: Inhibition zone Without CER
  zone of inhibition at 2500 µg/mL: 0 mm
[18]; P5, 18 h, reference antibiotic 10,000 μg/ml, read-out: Inhibition zone Without CER
  zone of inhibition at 10000 µg/mL: 14.7 mm
[18]; disc assay, Table 10
  Potentiation of the antimicrobial activity of cephaloridine: could not increase the antimicrobial activity of cephaloridine
[18]; reference antibiotic 625 μg/ml
  Inhibition zone With CER: 0 mm
[18]; reference antibiotic 2,500 μg/ml
  Inhibition zone With CER: 0 mm
[18]; reference antibiotic 10,000 μg/ml
  Inhibition zone With CER: 12.9 mm

## CCC1C(=O)N2C(C(=O)O)=C(SCCNC(C)=O)CC12 (centres unmarked) [antibiotic PS-5 sodium salt]
[19]
  Solubility in acetone: substantially insoluble
  Solubility in water: Soluble
[20]
  Specific activity: 21,000 CCU/mg
[21]
  Deaths after intraperitoneal administration: No dead was recorded
[22]
  ED50: 2.45 mg/kg
